ChEMBL document CHEMBL3580597 (J Med Chem, 2015)

Key:
K562 = experiment: cells; assay type: functional, cell-based; conditions: Homo sapiens, K562, 96 h
CREB-binding protein = CREB-binding protein (Homo sapiens, UniProt Q92793); experiment: Binding affinity to biotinylated CREBBP (1043 to 1159 amino acid residues) (unknown origin) expressed in Rosetta2 DE3 cells by bio-layer interferometry method
[1] = biological target: T1, Bromodomain-containing protein 3 (Homo sapiens, UniProt Q15059); experiment: Displacement of FAM-labeled ZBA248 from BRD3 BD2 (306 to 417 amino acid residues) (unknown origin) expressed in Rosetta2 DE3 cells after 30 mins by fluorescence polarization assay
T1 sequence (Q15059 whole entry, the tested form may be a part): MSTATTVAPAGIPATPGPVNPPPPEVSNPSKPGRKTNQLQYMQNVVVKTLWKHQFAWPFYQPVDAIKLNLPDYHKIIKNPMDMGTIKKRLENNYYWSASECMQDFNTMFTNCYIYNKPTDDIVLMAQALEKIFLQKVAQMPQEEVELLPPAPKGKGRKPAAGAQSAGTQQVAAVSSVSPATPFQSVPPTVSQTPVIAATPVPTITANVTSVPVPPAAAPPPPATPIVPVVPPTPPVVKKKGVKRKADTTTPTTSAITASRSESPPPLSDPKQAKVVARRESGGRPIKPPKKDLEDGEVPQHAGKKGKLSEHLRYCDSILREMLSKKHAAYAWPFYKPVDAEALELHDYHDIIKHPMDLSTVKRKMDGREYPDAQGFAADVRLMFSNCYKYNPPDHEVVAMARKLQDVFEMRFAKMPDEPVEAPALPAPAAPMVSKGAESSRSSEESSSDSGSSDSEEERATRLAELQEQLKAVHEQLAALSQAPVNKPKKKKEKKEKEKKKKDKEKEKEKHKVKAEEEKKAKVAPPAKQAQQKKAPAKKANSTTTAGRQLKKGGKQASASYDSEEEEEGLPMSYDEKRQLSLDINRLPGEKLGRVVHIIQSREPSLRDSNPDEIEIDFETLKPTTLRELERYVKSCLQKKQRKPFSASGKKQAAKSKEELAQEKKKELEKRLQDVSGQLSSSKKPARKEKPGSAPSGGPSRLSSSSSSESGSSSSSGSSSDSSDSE

[2] = biological target: T1, Bromodomain-containing protein 3; experiment: Displacement of FAM-labeled ZBA248 from BRD3 BD1 (24 to 144 amino acid residues) (unknown origin) expressed in Rosetta2 DE3 cells after 30 mins by fluorescence polarization assay
MV4-11 = experiment: cells; assay type: functional, cell-based; conditions: Homo sapiens, MV4-11, 96 h
[3] = biological target: T2, ATPase family AAA domain-containing protein 2 (Homo sapiens, UniProt Q6PL18); experiment: Binding affinity to biotinylated ATAD2A (981 to 1108 amino acid residues) (unknown origin) expressed in Rosetta2 DE3 cells by bio-layer interferometry method
T2 sequence (Q6PL18 whole entry): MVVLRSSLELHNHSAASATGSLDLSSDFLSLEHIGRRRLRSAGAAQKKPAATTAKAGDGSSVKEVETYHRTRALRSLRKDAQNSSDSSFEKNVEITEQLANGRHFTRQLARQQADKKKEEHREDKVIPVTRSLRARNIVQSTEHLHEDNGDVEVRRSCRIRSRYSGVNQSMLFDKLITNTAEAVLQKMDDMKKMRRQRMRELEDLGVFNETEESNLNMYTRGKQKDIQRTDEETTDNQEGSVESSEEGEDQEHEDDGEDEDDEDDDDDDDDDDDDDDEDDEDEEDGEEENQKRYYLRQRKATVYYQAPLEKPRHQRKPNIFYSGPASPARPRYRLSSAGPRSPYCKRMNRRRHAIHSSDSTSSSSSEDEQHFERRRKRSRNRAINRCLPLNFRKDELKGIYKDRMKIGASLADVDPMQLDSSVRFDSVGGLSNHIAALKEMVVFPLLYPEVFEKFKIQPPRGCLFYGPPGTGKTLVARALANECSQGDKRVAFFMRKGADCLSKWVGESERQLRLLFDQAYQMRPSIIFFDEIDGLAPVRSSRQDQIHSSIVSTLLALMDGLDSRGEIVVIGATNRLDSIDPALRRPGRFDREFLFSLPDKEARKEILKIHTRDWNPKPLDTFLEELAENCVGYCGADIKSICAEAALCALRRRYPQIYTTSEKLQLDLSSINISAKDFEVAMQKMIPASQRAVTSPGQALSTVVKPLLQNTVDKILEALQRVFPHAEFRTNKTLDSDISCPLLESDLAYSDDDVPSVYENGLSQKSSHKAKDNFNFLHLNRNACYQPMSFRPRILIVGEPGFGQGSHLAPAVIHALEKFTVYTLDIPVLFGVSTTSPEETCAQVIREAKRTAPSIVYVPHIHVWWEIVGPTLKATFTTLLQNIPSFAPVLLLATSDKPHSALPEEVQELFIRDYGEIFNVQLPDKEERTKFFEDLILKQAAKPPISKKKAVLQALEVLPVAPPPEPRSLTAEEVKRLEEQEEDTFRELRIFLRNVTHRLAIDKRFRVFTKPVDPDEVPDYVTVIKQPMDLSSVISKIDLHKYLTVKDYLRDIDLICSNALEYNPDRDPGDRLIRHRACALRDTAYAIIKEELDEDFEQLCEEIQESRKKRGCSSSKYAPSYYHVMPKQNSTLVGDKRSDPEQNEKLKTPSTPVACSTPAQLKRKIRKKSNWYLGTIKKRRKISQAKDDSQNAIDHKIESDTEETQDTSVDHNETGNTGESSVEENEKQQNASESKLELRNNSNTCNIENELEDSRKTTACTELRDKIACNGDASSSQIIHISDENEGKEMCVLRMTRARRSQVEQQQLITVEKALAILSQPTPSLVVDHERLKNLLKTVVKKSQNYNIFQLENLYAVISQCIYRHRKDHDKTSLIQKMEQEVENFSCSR

[4] = biological target: T1, Bromodomain-containing protein 3; experiment: Binding affinity to biotinylated BRD3 BD2 (306 to 417 amino acid residues) (unknown origin) expressed in Rosetta2 DE3 cells by bio-layer interferometry method
[5] = biological target: T1, Bromodomain-containing protein 3; experiment: biochemical; assay type: cell-based
[6] = biological target: T3, Bromodomain-containing protein 4 (Homo sapiens, UniProt O60885); experiment: Displacement of FAM-labeled ZBA248 from BRD4 BD1 (44 to 168 amino acid residues) (unknown origin) expressed in Rosetta2 DE3 cells after 30 mins by fluorescence polarization assay
[7] = biological target: T3, Bromodomain-containing protein 4; experiment: Displacement of FAM-labeled ZBA248 from BRD4 BD2 (333 to 460 amino acid residues) (unknown origin) expressed in Rosetta2 DE3 cells after 30 mins by fluorescence polarization assay
[8] = biological target: T4, Bromodomain-containing protein 2 (Homo sapiens, UniProt P25440); experiment: Displacement of FAM-labeled ZBA248 from BRD2 BD2 (349 to 460 amino acid residues) (unknown origin) expressed in Rosetta2 DE3 cells after 30 mins by fluorescence polarization assay
T4 sequence (P25440 whole entry, the tested form may be a part): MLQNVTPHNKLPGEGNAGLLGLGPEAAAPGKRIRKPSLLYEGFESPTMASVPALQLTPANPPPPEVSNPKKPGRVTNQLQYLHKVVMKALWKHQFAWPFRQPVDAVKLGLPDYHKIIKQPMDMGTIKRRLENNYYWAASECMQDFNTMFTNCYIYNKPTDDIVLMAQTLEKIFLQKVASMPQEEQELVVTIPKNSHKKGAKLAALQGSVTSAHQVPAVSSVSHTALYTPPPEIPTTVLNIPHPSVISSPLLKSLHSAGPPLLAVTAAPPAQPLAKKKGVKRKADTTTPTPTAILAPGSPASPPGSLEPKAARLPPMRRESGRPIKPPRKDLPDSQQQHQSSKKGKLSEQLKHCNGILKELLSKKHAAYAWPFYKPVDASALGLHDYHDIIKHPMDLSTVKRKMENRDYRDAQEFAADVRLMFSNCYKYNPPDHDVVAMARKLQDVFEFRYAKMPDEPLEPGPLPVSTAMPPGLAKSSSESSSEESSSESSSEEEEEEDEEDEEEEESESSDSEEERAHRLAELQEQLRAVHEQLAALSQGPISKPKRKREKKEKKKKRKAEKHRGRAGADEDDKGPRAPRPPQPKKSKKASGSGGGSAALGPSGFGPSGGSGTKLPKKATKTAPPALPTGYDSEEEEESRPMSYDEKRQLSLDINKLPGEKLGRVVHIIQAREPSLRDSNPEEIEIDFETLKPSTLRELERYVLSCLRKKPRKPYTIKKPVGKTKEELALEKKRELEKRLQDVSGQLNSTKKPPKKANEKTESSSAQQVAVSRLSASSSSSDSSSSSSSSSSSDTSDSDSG

[9] = biological target: T4, Bromodomain-containing protein 2; experiment: Displacement of FAM-labeled ZBA248 from BRD2 BD1 (72 to 205 amino acid residues) (unknown origin) expressed in Rosetta2 DE3 cells after 30 mins by fluorescence polarization assay

Chain of CREB-binding protein (Q92793 whole entry, the tested form may be a part): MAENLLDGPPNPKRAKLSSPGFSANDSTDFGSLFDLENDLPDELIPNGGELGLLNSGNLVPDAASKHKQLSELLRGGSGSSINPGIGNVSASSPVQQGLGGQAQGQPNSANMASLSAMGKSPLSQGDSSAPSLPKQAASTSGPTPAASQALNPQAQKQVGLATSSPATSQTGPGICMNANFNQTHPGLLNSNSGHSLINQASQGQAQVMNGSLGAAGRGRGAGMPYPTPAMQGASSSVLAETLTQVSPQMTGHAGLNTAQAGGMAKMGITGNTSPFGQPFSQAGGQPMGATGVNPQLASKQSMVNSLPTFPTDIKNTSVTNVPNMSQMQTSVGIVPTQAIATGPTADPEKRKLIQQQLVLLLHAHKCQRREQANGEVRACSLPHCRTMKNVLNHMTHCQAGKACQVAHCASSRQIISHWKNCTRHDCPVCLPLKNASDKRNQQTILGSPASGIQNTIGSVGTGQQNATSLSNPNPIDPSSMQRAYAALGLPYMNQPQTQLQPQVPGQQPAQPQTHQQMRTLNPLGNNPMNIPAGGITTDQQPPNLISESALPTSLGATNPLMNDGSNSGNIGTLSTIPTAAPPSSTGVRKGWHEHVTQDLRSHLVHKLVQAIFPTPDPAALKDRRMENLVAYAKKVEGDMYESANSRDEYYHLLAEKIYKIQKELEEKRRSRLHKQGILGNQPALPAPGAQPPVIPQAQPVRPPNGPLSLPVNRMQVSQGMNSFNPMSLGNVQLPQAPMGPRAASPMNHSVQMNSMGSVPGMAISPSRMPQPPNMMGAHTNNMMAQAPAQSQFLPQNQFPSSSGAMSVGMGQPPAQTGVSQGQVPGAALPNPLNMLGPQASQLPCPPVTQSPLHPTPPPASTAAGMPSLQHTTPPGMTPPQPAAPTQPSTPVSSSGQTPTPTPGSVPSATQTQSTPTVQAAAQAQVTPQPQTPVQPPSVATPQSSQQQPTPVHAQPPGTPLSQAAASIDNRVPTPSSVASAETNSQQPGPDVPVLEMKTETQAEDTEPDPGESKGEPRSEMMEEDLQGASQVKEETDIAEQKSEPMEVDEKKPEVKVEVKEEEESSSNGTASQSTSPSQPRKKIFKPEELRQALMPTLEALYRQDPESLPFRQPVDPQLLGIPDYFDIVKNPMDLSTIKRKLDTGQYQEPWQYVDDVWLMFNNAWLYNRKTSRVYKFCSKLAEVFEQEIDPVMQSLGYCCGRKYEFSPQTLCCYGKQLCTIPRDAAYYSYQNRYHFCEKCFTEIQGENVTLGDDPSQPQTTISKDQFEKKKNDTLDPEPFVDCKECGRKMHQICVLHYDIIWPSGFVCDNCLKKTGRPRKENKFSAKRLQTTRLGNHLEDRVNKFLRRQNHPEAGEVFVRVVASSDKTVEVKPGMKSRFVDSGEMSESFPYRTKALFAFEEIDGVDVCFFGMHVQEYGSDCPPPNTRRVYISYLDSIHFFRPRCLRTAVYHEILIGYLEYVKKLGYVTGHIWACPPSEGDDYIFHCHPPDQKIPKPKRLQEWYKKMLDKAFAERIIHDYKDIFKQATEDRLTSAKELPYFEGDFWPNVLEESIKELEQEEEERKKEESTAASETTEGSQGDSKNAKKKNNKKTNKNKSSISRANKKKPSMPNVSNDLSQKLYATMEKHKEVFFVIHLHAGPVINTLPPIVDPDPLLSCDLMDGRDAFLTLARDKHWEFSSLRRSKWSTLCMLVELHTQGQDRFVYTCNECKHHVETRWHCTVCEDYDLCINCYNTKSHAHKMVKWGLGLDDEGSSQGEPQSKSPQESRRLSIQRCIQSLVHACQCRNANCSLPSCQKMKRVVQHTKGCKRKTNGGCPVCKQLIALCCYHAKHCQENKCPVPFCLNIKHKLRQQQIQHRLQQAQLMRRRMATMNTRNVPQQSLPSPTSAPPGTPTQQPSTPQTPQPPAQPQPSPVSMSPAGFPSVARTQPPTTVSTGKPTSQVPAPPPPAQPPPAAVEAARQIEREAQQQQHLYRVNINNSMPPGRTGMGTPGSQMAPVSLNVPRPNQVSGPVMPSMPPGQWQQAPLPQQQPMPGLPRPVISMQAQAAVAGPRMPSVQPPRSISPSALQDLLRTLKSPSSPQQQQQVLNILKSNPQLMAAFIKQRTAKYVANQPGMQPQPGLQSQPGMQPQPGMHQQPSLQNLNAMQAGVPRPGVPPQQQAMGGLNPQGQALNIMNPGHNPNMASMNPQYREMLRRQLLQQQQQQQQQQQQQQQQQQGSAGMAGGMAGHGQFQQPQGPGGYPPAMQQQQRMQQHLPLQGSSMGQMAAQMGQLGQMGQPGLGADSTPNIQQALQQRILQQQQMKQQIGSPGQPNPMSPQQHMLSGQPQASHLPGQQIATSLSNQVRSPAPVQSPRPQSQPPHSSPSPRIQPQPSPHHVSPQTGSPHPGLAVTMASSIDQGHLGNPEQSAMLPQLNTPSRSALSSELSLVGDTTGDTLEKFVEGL

With `Cc1sc2c(c1C)C(c1ccc(Cl)cc1)=N[C@@H](CC(=O)OC(C)(C)C)c1nnc(C)n1-2` as the compound, how does the IC50 (K562) read?
Its IC50 is over 2000 nM.

How did the Kd (CREB-binding protein) turn out when `COc1cc2c(cc1-c1c(C)noc1C)ncc1[nH]c(=O)n([C@H](C)c3ccccn3)c12` was run?
The Kd was 3080 nM.

And the Ki [1]?
The Ki was 22.3 nM.

And the Ki [2]?
Its Ki is 7.2 nM.

What about the IC50 (MV4-11) of the same compound?
Its IC50 is 162 nM.

And the Kd [3]?
Its Kd is over 10000 nM.

And the Kd [4]?
Its Kd is 40.5 nM.

And the IC50 (K562)?
Its IC50 is over 2000 nM.

What about the Kd [5] of the same compound?
Its Kd is 29.8 nM.

For `COc1cc2c(cc1-c1c(C)noc1C)[nH]c1ccncc12`, which IC50 [6] is on record?
The IC50 was 4590 nM.

And the IC50 [7]?
Its IC50 is 2690 nM.

Which IC50 [6] does the source give for `COc1cc2c(cc1-c1c(C)noc1C)[nH]c1ccnc(Cl)c12` here?
The IC50 was 862 nM.

What about the IC50 [7] of the same compound?
Its IC50 is 579 nM.

With `CCc1noc(C)c1-c1cc2[nH]c3ccnc(Cl)c3c2cc1OC` as the compound, how does the IC50 [6] read?
The IC50 was 3870 nM.

What about the Ki [6] of the same compound?
The Ki was 1240 nM.

And the IC50 [7]?
The IC50 was 1820 nM.

What about the Ki [7] of the same compound?
Its Ki is 478 nM.

`CCc1onc(C)c1-c1cc2[nH]c3ccnc(Cl)c3c2cc1OC` was tested. Which IC50 [6] did it give?
The IC50 was 9440 nM.

What about the Ki [6] of the same compound?
The Ki was 2810 nM.

And the IC50 [7]?
The IC50 was 13800 nM.

And the Ki [7]?
The Ki was 2180 nM.

Which results are given for `CCc1noc(CC)c1-c1cc2[nH]c3ccnc(Cl)c3c2cc1OC`?
IC50 [6]: > 10000 nM; Ki [6]: > 10000 nM; IC50 [7]: 74000 nM; Ki [7]: 8320 nM

How did the IC50 [6] turn out when `COc1cc2c(cc1-c1c(C)n[nH]c1C)[nH]c1ccnc(Cl)c12` was run?
Its IC50 is 4870 nM.

And the Ki [6]?
Its Ki is 1730 nM.

What about the IC50 [7] of the same compound?
Its IC50 is 2580 nM.

And the Ki [7]?
Its Ki is 867 nM.

How did the IC50 [6] turn out when `COc1cc2c(cc1-c1c(C)nn(C)c1C)[nH]c1ccnc(Cl)c12` was run?
Its IC50 is 14000 nM.

What about the Ki [6] of the same compound?
Its Ki is 4840 nM.

And the IC50 [7]?
The IC50 was 6170 nM.

What about the Ki [7] of the same compound?
Its Ki is 1950 nM.

`COc1cc2c(cc1-c1c(C)noc1C)[nH]c1ccnc(-c3c(C)noc3C)c12` was tested. Which IC50 [6] did it give?
Its IC50 is 134 nM.

And the Ki [6]?
The Ki was 47.8 nM.

And the IC50 [7]?
The IC50 was 221 nM.

What about the Ki [7] of the same compound?
Its Ki is 70.1 nM.

What does the source list for `COc1cc2c(cc1-c1c(C)noc1C)[nH]c1ccnc(-c3c(C)n[nH]c3C)c12`?
IC50 [6]: 276 nM; IC50 [7]: 324 nM

`COc1cc2c(cc1-c1c(C)noc1C)[nH]c1ccnc(-c3cn[nH]c3)c12` was tested. Which IC50 [6] did it give?
Its IC50 is 702 nM.

And the IC50 [7]?
The IC50 was 658 nM.

Which IC50 [6] does the source give for `COc1cc2c(cc1-c1c(C)noc1C)[nH]c1ccnc(-c3c(C)nn(-c4ccccc4)c3C)c12` here?
Its IC50 is 301 nM.

And the Ki [6]?
Its Ki is 103 nM.

And the IC50 [7]?
The IC50 was 316 nM.

What about the Ki [7] of the same compound?
The Ki was 98.1 nM.

Which results are given for `CCc1n[nH]c(CC)c1-c1nccc2[nH]c3cc(-c4c(C)noc4C)c(OC)cc3c12`?
Ki [8]: 15.4 nM; IC50 [6]: 131 nM; Ki [6]: 44.1 nM; Ki [9]: 21 nM; IC50 [7]: 61.9 nM; Ki [7]: 16.1 nM; IC50 (K562): > 2000 nM

`CCNC(=O)C[C@@H]1N=C(c2ccc(Cl)cc2)c2cc(OC)ccc2-n2c(C)nnc21` [MOLIBRESIB] was tested. Which Kd (CREB-binding protein) did it give?
The Kd was over 10000 nM.

What about the Kd [3] of the same compound?
Its Kd is over 10000 nM.
